Experiments:
BxPC3 = assay: Cell based screen for inhibitors of Raf and/or Mek kinase (SRB), BxPC3; conditions: Homo sapiens, BXPC-3, BxPC3 cells, (a)/(b) = average of two/three runs
Method: [The procedure below names another cell line; the source lists this cell line under the same test.] (§1) Cell Based Screen for Inhibitors of Raf and/or Mek Kinase. Materials
(§2) Cells are plated at 2000 cells per well for cell line LoVo and 1500 cells for cell line CaCo-2 in 96 well plates. Cells are plated in media (200 μl) and allowed to adhere overnight at 37° C. At 24 hours post plating, compounds are added directly at a volume of 0.5 μl. For the qualitative screen (compounds screened at 25 μM) compound is added directly to cells. For the quantitative screen, compound is first diluted in DMSO to generate concentrations of compound or reference standard of: 1, 5, 10 and 25 μM. It is advisable to make the dilutions in an identical 96 well plate so that compounds can be added using a multichannel micropipettor set at 0.5 μl. The cells are then incubated for four days after which the media is removed using a 12 well manifold by first tipping the plate forward at a 45 degree angle and then inserting the manifold in an upright orientation to prevent the tips of the manifold from disturbing cells at the bottom of the plate. 200 μl of normal saline is then added to each well using an 8 well multichannel pipettor, followed by the careful addition of 50 μl of 50% TCA. The plates are then incubated for 2 hours at 4° C., after which the supernatant is removed using the same technique as above and the plated cells are washed twice with 200 μl water. The plates are then air dried and 50 μl of SRB stock solution is carefully added so that the entire bottom of each well is covered. This again can be done using an 8 well multichannel pipettor. The SRB is incubated with fixed cells for 15 minutes at room temperature after which the SRB is removed with the manifold as described above and the plates washed twice with 350 μl of 1% acetic acid per well each time. The plates are then air dried after which the bound SRB is released from protein by the addition of 200 μl of Tris base. Resolubilizing the SRB is aided by placing the plates on a rotator for 15-30 minutes. The absorbance of each well is determined at 550 or 562 nm using a microtiter plate reader.
(§3) Each compound or dilution thereof is performed in triplicate. Outliers are identified by visual inspection of the data. Each plate should have a “0” control (vehicle only).
(§4) Quantitative Assay: A standard curve is constructed by plotting the concentration of compound against the average absorbance calculated at that concentration. A curve is plotted and the concentration at which the curve passes through the 50% the absorbance mark seen in the “0” control well is the IC50 calculated for that compound. Multiple entries for a given compound indicate that it is tested multiple times.

p60c-src = target: T1, p60c-src (Homo sapiens, UniProt P12931); assay: Src kinase test procedure (ELISA); assay type: biochemical; conditions: cdc2 substrate peptide, (a) = average of two runs
T1 construct: purchased Upstate Biotechnologies
Method: Src Kinase Test Procedure
Inhibitors of p60^c-src (partially purified preparation purchased from Upstate Biotechnologies) tyrosine kinase activity are analyzed in an Elisa format. The Boehringer Mannheim Tyrosine Kinase Assay Kit (Catalog number 1-534505) with a cdc2 substrate peptide containing Tyr15 is used for the assay. HRP-conjugated anti-phosphotyrosine is used to detect phosphorylated peptide via a color reaction. Conditions recommended by the manufacturer are employed.
Reaction conditions: Five microliter aliquots of each compound prepared fresh at the time of the assay are added as a solution in 10 mM HEPES pH 7.5, 10% DMSO to the reaction well. Thirty-five microliters of reaction mix containing Src, buffer and peptide/bovine serum albumin mix are added to the compound wells and incubated at 30° C. for 10 minutes (reaction buffer: 50 mM Tris HCl pH 7.5, 10 mM MgCl2, 0.1 mM EGTA, 0.5 mM Na3VO4). The reaction is started by addition of 10 microliters of ATP, incubated at 30° C. for 1 hour, and stopped by addition of 20 microliters of 0.5M EDTA. The reaction mixture with the phosphorylated peptide is then transferred to a streptavidin-coated microtiter plate (provided in the kit) and allowed to bind for 20 minutes. Unbound peptide and reaction mixture is decanted and the plate is washed with PBS six times. Horseradish peroxidase-conjugated phosphotyrosine antibody supplied in the kit is incubated with the plate for one hour, then decanted. The plate is again ished with PBS six times. Substrate (provided in the kit) is added and absorbance at 405 nm is measured.
Activity is determined as % inhibition as calculated by the formula: (1−Abs/Abs(max))×100=% inhibition. Where multiple concentrations of the test agent are used, an IC50 (concentration which gives 50% inhibition) could be determined.

[1] = target: T2, Raf and/or Mek kinase (human c-Raf, GST-MEK1) (Homo sapiens, UniProt P04049+Q02750); assay: Raf/Mek kinase cascade assay; assay type: biochemical; conditions: c-Raf dependent activation of GST-MEK and GST-MAPK, phospho-MAPK ELISA; (a)/(b)/(c) = average of two/three/four runs
T2 construct: Sf9 insect cell lysate containing full length 6his-tagged recombinant human c-Raf; 6His; host or cells: Sf9 insect cells (c-Raf, used as lysate); E. coli (MEK1-GST, GST-MAPK)
Method: Raf/Mek Kinase Cascade Assay Procedure
(Specific Activity: ˜200 U/ml). Human Non-active Mek-1-GST and human GST-MAP kinase (recombinant proteins produced in E. coli).
Stock Solutions Raf/Mek Cascade Assay:
• 1. Assay Dilution Buffer (ADB): 20 mM MOPS, pH 7.2, 25 mM β-glycerol phosphate, 5 mM EGTA, 1 mM sodium orthovanadate, 1 mM dithiothreitol; • 2. Magnesium/ATP Cocktail: 500 μM cold ATP and 75 mM magnesium chloride in ADB; • 3. Active Kinase: Human Active c-Raf: Use at 0.4 U per assay point; • 4. Non-active GST-MEK1: Use at 0.1 μg per assay point; and • 5. Non-active GST-p42 MAP Kinase: Use at 1.0 μg per assay point. Stock Solutions ELISA: • 1. TBST-Tris (50 mM, pH 7.5), NaCl (150 mM), Tween-20 (0.05%); • 2. Superblock (Pierce); • 3. Anti-GST Ab (Pharmacia); • 4. Anti-Phospho MAPK (Sigma); and • 5. Anti-Mouse Ab/Europium conjugate (Wallac). Assay Procedure: First Stage: c-Raf Dependent Activation of GST-MEK and GST-MAPK • 1. Add […] of ADB per assay (i.e. per well of a 96 well plate); • 2. Add 10 ml of 0.5 mM cold ATP and 75 mM magnesium chloride in ADB; • 3. Add 2 ml of c-Raf (0.4 U/assay), in conjunction with 1.6 ml non-active MEK1 (0.4 […]/assay); • 4. Add 4 ml of non-active GST-p42 MAP Kinase (1.0 mg/assay); • 5. Incubate for 60 minutes at 30° C. in a shaking incubator; • 6. Transfer this mixture to an anti-GST Ab coated 96 well plate (Nunc Immunosorb plates coated o/n with a-GST, then blocked with Pierce Superblock); • 7. Incubate for 60 minutes at 30° C. in a shaking incubator; • 8. Wash 3× with TBST, add Anti-Phospho MAPK (Sigma) (1:3000); • 9. Incubate for 60 minutes at 30° C. in a shaking incubator; • 10. Wash 3× with TBST, add Anti-Mouse Ab/Europium conjugate (Wallac) (1:500); • 11. Incubate for 60 minutes at 30° C. in a shaking incubator; • 12. Wash 3× with TBST, Read plates in Wallac Victor model Plate Reader; and • 13. Collect data analyze in Excel for single point and IC50 determinations.
Single point assay—% inhibition at […] (% Inhibition=1−cpd·treated sample/untreated control). IC50 determinations—done on compounds from single point assays with >80% inhibition. Typically, the Raf/Mek assay is run at compound concentrations from 10 μM to 1 nM in half log dilutions. (% inhibition is determined for each compound concentration). The results obtained measure Raf and/or Mek kinase inhibition, and for representative compounds of this invention are listed in Table 1.

LoVo = assay: Cell based screen for inhibitors of Raf and/or Mek kinase (SRB), LoVo; design: species or system human; conditions: Homo sapiens, 96 h, LoVo cells, four days incubation, (a)/(b)/(c) = average of two/three/five runs
Method: as §1
Cell Lines: Human adenocarcinoma cell line LoVo, known to be growth inhibited by low nM concentrations of a reference standard inhibitor of Ras and human adenocarcinoma cell line CaCo-2, known to be growth resistant to the same reference compound.
Cell Media: RPMI 1640 with 10% Fetal Bovine Serum supplemented with L-glutamine and Penicillin/Streptomycin.
as §2, §3, §4

[2] = system: Rat2 fibroblasts transformed with v-Src/Hu c-Src fusion gene; assay: Anchorage independent Src-transformed fibroblast proliferation; assay type: cell-based; conditions: Rattus norvegicus, 120 h, suspension growth, MTS on Day 5, read-out: Src TF prolif IC50
Method: Anchorage Independent Src-transformed Fibroblast Proliferation Test Procedure: Rat2 fibroblasts stably transformed with a plasmid containing a CMV promotor controlled v-Src/Hu c-Src fusion gene in which the catalytic domain of human c-Src is inserted in place of the v-Src catalytic domain in the v-Src gene are used for the measurement of src dependent suspension growth. Ultra-low cluster plates (Costar #3474) are seeded with 10,000 cells per well on Day 1.

T2 sequence (P04049 whole entry): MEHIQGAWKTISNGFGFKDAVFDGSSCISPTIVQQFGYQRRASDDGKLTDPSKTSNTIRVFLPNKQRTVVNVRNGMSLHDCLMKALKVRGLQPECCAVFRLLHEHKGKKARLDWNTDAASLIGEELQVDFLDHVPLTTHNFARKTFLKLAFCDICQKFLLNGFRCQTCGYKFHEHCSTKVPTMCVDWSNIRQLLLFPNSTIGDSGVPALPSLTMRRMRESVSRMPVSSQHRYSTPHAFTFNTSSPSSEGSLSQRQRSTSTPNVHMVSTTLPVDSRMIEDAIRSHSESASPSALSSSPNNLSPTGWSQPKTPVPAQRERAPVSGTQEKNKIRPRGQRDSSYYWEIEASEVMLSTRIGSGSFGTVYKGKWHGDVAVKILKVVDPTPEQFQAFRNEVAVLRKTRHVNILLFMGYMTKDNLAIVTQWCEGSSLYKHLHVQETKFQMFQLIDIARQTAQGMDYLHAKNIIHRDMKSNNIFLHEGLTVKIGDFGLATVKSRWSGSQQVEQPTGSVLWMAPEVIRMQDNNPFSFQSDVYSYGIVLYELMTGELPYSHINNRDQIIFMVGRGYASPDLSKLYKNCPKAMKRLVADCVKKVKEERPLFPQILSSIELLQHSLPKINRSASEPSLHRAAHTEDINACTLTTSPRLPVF
T2 sequence (Q02750 whole entry): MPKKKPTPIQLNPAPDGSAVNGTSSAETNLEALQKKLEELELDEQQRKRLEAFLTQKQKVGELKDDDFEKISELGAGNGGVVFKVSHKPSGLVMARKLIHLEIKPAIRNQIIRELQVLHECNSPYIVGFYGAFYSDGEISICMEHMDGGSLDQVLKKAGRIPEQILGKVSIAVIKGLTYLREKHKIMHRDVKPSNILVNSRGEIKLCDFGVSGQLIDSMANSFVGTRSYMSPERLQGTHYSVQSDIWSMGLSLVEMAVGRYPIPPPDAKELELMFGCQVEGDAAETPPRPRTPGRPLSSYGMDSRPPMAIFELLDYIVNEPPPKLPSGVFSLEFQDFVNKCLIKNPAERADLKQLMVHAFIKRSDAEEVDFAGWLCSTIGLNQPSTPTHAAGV
T1 sequence (P12931 whole entry): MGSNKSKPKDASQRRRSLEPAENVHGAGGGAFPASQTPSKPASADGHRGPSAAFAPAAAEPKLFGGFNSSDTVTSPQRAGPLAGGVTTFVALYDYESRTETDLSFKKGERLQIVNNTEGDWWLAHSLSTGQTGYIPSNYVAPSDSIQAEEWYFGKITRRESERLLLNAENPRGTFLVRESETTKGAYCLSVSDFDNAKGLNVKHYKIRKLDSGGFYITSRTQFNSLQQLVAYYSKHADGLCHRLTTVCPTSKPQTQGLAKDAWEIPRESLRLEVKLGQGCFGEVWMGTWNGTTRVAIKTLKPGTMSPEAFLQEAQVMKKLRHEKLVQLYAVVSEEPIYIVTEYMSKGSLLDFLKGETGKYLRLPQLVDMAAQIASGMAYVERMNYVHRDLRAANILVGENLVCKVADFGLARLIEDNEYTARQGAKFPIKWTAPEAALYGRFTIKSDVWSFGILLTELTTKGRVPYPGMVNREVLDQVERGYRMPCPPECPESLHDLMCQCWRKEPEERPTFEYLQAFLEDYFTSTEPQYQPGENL

Row | SMILES | IC50 (BxPC3) [nM] | IC50 (p60c-src) [nM] | IC50 [1] [nM] | IC50 (LoVo) [nM] | melting point [°C] | IC50 [2] [nM]
1 | COc1cc2c(Nc3ccc(Sc4nccn4C)c(Cl)c3)c(C#N)cnc2cc1N1CCC(N2CCCC2)CC1 [Example 11, 4-({3-chloro-4-[(1-methyl-1H-imidazole-2-yl)thio]phenyl}amino)-6-methoxy-7-(4-pyrrolidin-1-ylpiperidin-1-yl)quinoline-3-carbonitrile] | 42 | 281 | 114 | 29 | 225 to 229 | 
2 | COc1cc2c(Nc3ccc(Sc4nccn4C)c(Cl)c3)c(C#N)cnc2cc1N1CCC(N2CCN(C)CC2)CC1 [Example 20, 4-({3-Chloro-4-[(1-methyl-1H-imidazole-2-yl)thio]phenyl}amino)-6-methoxy-7-[4-(4-methylpiperazin-1-yl)piperidin-1-yl]quinoline-3-carbonitrile] | 38 |  | 293 | 22 | 235 to 237 | 
3 | CC(=O)N(C(C)=O)c1cc2c(Nc3ccc(Sc4nccn4C)c(Cl)c3)c(C#N)cnc2cc1N1CCC(N2CCCC2)CC1 [Example 28, N-Acetyl-N-[4-[3-chloro-4-(1-methyl-1H-imidazole-2-ylsulfanyl)-phenylamino]-3-cyano-7-(4-pyrrolidin-1-yl-piperidin-1-yl)quinolin-6-yl]acetamide] | 8 |  | 2390 | 14 | 245 to 247 | 
4 | COc1cc2c(Nc3ccc(Oc4cccnc4)cc3)c(C#N)cnc2cc1N1CCC(N2CCCC2)CC1 [Example 15, 6-Methoxy-4-[4-(pyridin-3-yloxy)-phenylamino]-7-(4-pyrrolidin-1-yl-piperidin-1-yl)-quinoline-3-carbonitrile] | 360 |  | 1720 | 261 | 194 to 196 | 
5 | COc1cc2c(Nc3ccc(Sc4ccccn4)cc3)c(C#N)cnc2cc1N1CCC(N2CCCC2)CC1 [Example 13, 6-Methoxy-4-[4-(pyridin-2-ylsulfanyl)phenylamino]-7-(4-pyrrolidin-1-yl-piperidin-1-yl)-quinoline-3-carbonitrile] | 600 |  | 1430 | 470 | 182 to 184 | 
6 | COc1cc2c(Nc3ccc(Sc4ccccn4)c(Cl)c3)c(C#N)cnc2cc1N1CCC(N2CCCC2)CC1 [Example 14, 4-[3-Chloro-4-(pyridin-2-ylsulfanyl)-phenylamino]-6-methoxy-7-(4-pyrrolidin-1-yl-piperidin-1-yl)-quinoline-3-carbonitrile] | 300 |  | 795 | 370 | 203 to 205 | 
7 | COc1cc(Nc2c(C#N)cnc3cc(N4CCC(N5CCCC5)CC4)c(OC)cc23)c(Cl)cc1Cl [Example 31, 4-[(2,4-dichloro-5-methoxyphenyl)amino]-6-methoxy-7-(4-pyrrolidin-1-ylpiperidin-1-yl)quinoline-3-carbonitrile] |  |  |  |  | 225 to 227 | 2400
8 | CCOc1cc2c(Nc3ccc(Sc4nccn4C)c(Cl)c3)c(C#N)cnc2cc1N1CCC(N2CCCC2)CC1 [Example 18, 4-({3-chloro-4-[(1-methyl-1H-imidazole-2-yl)thio]phenyl}amino)-6-ethoxy-7-(4-pyrrolidin-1-ylpiperidin-1-yl)quinoline-3-carbonitrile] | 30 |  | 75 | 27 | 203 to 207 | 

Reference: patent US7767671B2, “3-Quinolinecarbonitrile protein kinase inhibitors” (Wyeth, priority 2004, dated 2010)
